One block for each molecule: values may come before it.
How the values were obtained:
[1] = target: T1, multidrug resistance-associated protein 2 (MRP2) (Homo sapiens, UniProt Q92887); design: gene ABCC2
[2] = target: T1, multidrug resistance-associated protein 2 (MRP2); assay: inhibition of ATP-dependent platinum uptake (oxaliplatin […]) in MRP2-expressing membrane vesicles, ICPMS; type: biochemical; design: gene ABCC2; human MRP2 in inside-out Sf9 membrane vesicles
[3] = target: T1, multidrug resistance-associated protein 2 (MRP2); assay: inhibition of ATP-dependent platinum uptake (oxaliplatin […]) in MRP2-expressing membrane vesicles, ICPMS; […] reduction at […]; type: cell-based; design: gene ABCC2; human MRP2 in inside-out Sf9 membrane vesicles

T1 sequence (Q92887 whole entry): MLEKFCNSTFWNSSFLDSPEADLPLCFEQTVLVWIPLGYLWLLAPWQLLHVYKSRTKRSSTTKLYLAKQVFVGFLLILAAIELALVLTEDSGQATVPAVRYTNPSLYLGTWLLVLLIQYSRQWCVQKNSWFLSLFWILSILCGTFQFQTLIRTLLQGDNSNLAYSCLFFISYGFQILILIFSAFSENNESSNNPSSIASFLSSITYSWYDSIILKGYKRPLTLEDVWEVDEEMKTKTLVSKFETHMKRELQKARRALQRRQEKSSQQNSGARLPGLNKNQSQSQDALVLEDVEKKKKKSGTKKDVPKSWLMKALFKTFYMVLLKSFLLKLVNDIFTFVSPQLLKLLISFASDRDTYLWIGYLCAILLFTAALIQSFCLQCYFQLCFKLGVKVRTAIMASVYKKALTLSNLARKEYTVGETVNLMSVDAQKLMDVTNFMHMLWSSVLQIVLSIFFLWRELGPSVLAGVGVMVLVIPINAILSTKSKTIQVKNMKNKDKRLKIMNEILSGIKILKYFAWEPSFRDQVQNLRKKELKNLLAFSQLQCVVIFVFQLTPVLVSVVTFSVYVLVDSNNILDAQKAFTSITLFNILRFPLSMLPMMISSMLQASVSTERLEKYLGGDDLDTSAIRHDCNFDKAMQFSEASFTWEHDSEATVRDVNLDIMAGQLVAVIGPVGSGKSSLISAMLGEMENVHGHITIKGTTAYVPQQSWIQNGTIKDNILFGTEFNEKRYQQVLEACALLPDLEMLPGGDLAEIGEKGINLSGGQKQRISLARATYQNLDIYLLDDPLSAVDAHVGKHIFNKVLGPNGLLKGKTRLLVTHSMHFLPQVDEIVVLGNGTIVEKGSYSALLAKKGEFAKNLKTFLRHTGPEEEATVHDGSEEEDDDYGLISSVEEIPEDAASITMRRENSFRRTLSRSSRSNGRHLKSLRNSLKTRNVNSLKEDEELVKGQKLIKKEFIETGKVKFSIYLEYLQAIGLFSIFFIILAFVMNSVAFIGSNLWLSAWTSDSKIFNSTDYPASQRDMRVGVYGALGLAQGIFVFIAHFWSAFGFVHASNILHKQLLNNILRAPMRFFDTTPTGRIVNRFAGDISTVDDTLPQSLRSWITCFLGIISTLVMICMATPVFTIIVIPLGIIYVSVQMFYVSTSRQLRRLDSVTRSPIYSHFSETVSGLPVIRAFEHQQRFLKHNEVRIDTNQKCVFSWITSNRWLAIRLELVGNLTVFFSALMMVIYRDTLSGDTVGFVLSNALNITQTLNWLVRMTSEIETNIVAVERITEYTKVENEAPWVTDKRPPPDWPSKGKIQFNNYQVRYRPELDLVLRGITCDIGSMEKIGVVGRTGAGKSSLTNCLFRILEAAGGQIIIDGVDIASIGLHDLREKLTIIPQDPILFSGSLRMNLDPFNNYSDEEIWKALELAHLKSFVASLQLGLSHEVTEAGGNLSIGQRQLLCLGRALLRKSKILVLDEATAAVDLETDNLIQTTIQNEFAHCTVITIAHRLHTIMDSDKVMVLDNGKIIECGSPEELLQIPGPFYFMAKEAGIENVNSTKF

SMILES: O=C1[O][Pt]2([NH][C@@H]3CCCC[C@H]3[NH]2)[O]C1=O [oxaliplatin]
- Km [1]: 301 µM

SMILES: O=c1c(O)c(-c2cc(O)c(O)c(O)c2)oc2cc(O)cc(O)c12 [myricetin]
- IC50 [2]: 10 to 100 µM

- inhibition at 100 µM [3]: 96%
SMILES: CN(C)C(=O)CCSC(SCCC(=O)O)c1cccc(/C=C/c2ccc3ccc(Cl)cc3n2)c1 (stereo not drawn) [MK571]
